Paper PMC12207370, “Macrocyclic Peptide Probes for Immunomodulatory Protein CD59: Potent Modulators of Bacterial Toxin Activity and Antibody‐Dependent Cytotoxicity” (Angewandte Chemie (International Ed. in English), 2025)
Like-named read-outs stand apart in the source and are kept apart here. Peptide text beside a SMILES is read from it.

Target: T1, CD59 (Homo sapiens, UniProt P13987)
T1 construct: Recombinant soluble human CD59 with an additional C-terminal cysteine residue
T1 sequence (P13987 26-102 limits assumed): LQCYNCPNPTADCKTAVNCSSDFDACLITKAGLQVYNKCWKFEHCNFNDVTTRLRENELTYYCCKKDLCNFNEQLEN
Experiment: SPR (Biacore S200) binding to immobilised biotinylated CD59
Source text: To identify which of these peptides bound CD59 most tightly, we used a Biacore S200 surface plasmon resonance (SPR) platform to investigate CD59 affinity (Figure 2b), using a known protein binding partner of CD59 (rILYd4) as a benchmark. Four 13‐mer macrocyclic peptides and one 14‐mer macrocyclic peptide were identified with a dissociation constant (K D) lower than that of rILYd4. Considering their fourfold lower molecular weight, these peptides bind with up to 19‐fold greater efficiency compared to rILYd4 (Figure 2b).
Equipment: SPR analysis was performed on a Cytiva Biacore S200. All buffers were prepared using ultra-pure water from a Millipore Elix Q-Gard purification system. Solutions and buffers were filtered with a 0.22 μm filter and degassed prior to use. The assays were performed on Series S streptavidin (SA) sensor chip (Cytiva). PBS-P+ buffer 10X (0.2 M phosphate buffer with 27 mM KCl, 1.37 M NaCl and 0.5% Surfactant P20 (Tween 20)) was used for the preparation of the assay running buffer (PBS-P+ 1X).
Immobilisation of CD59-biotin: Biotinylated CD59 was immobilised on the surface of a SA chip by non-covalent capture (biotin streptavidin interaction) as per the manufacturer’s instructions. The system was initially primed with running buffer and normalised using BIAnormalizing solution (70% (w/w) glycerol) (Cytiva). Before immobilising the protein, the surface was conditioned with three consecutive one-minute injections of 1 M NaCl in 50 mM NaOH. Biotinylated CD59 (0.5 µg/mL in running buffer) was flowed over the protein (active) channel for different contact times to achieve different immobilisation levels (600–1200 RU). After each protein injection, the needle and injection loop were washed using 50% isopropanol in 1 M NaCl and 50 mM NaOH. A reference channel was prepared by similar treatment; however, running buffer alone rather than CD59-biotin in running buffer was flowed over the chip the same way.
Interaction analysis: Multicycle kinetic and affinity approach was used for the analysis of peptides interactions with CD59. Two-fold serial dilutions of each peptide were prepared in running buffer and were flowed over both the ligand and reference channel using a flow rate (30 μL/min) at 25 °C. A zero concentration was added to each analyte series and three cycles of buffer were run between analytes to restore the baseline. The obtained sensorgrams were analysed using the embedded Biacore S200 Evaluation software. The data were normalised by subtracting RU values of the reference channel and zero concentration of the analyte series. Kinetic rate constants (kon and koff) were determined by fitting the normalised data using the built-in Kinetic analysis model (non-linear regression with a 1:1 Langmuir binding model), KD values were then calculated from the two rate constants ([…]). The KD values were determined again by fitting the normalised data using the built-in Affinity analysis model (1:1 Langmuir binding model).

[1] = Ala scan of CP-06, SPR, n = 1, read-out: KD
[2] = SPR, immobilized CD59, average of three technical replicates ± SEM, read-out: KD (nM) ± SEM

| SMILES | Kd [1] [nM] | also measured |
| --- | --- | --- |
| CC(C)[C@@H]1NC(=O)[C@H](C)NC(=O)[C@H](CO)NC(=O)[C@H](CCCNC(=N)N)NC(=O)[C@H](CC(N)=O)NC(=O)CNC(=O)[C@H](Cc2c[nH]c3ccccc23)NC(=O)[C@H]([C@@H](C)O)NC(=O)[C@H](Cc2c[nH]c3ccccc23)NC(=O)[C@H](CO)NC(=O)[C@@H](Cc2ccc(O)cc2)NC(=O)CSC[C@@H](C(N)=O)NC(=O)CNC(=O)[C@H](CCCNC(=N)N)NC1=O [CP-06-S10A] (HELM PEPTIDE1{[O=C(C[*:3])[*:2]].[dY].S.W.T.W.G.N.R.S.A.V.R.G.C.[am]}$PEPTIDE1,PEPTIDE1,1:R3-15:R3$$$V2.0) | 12 |  |
| CC(C)[C@@H]1NC(=O)[C@H](CO)NC(=O)[C@H](CO)NC(=O)[C@H](CCCNC(=N)N)NC(=O)[C@H](CC(N)=O)NC(=O)CNC(=O)[C@H](Cc2c[nH]c3ccccc23)NC(=O)[C@H]([C@@H](C)O)NC(=O)[C@H](Cc2c[nH]c3ccccc23)NC(=O)[C@H](C)NC(=O)[C@@H](Cc2ccc(O)cc2)NC(=O)CSC[C@@H](C(N)=O)NC(=O)CNC(=O)[C@H](CCCNC(=N)N)NC1=O [CP-06-S2A] (HELM PEPTIDE1{[O=C(C[*:3])[*:2]].[dY].A.W.T.W.G.N.R.S.S.V.R.G.C.[am]}$PEPTIDE1,PEPTIDE1,1:R3-15:R3$$$V2.0) | 13 |  |
| CC(C)[C@@H]1NC(=O)[C@H](CO)NC(=O)[C@H](CO)NC(=O)[C@H](CCCNC(=N)N)NC(=O)[C@H](C)NC(=O)CNC(=O)[C@H](Cc2c[nH]c3ccccc23)NC(=O)[C@H]([C@@H](C)O)NC(=O)[C@H](Cc2c[nH]c3ccccc23)NC(=O)[C@H](CO)NC(=O)[C@@H](Cc2ccc(O)cc2)NC(=O)CSC[C@@H](C(N)=O)NC(=O)CNC(=O)[C@H](CCCNC(=N)N)NC1=O [CP-06-N7A] (HELM PEPTIDE1{[O=C(C[*:3])[*:2]].[dY].S.W.T.W.G.A.R.S.S.V.R.G.C.[am]}$PEPTIDE1,PEPTIDE1,1:R3-15:R3$$$V2.0) | 209 |  |
| CC[C@H](C)[C@@H]1NC(=O)[C@H](CCC(N)=O)NC(=O)[C@H](CCCNC(=N)N)NC(=O)[C@H](CC(N)=O)NC(=O)CNC(=O)[C@H](Cc2c[nH]c3ccccc23)NC(=O)[C@H](C)NC(=O)[C@H](CO)NC(=O)[C@@H](Cc2ccc(O)cc2)NC(=O)CSC[C@@H](C(N)=O)NC(=O)[C@H](Cc2ccc(O)cc2)NC(=O)[C@H](Cc2ccc(O)cc2)NC(=O)[C@H](CCC(N)=O)NC1=O [CP-03] (HELM PEPTIDE1{[O=C(C[*:3])[*:2]].[dY].S.A.W.G.N.R.Q.I.Q.Y.Y.C.[am]}$PEPTIDE1,PEPTIDE1,1:R3-14:R3$$$V2.0) |  | Kd [2]: 23.4 ± 0.7 nM |
| CC(C)[C@@H]1NC(=O)[C@H](CO)NC(=O)[C@H](CO)NC(=O)[C@H](CCCNC(=N)N)NC(=O)[C@H](CC(N)=O)NC(=O)CNC(=O)[C@H](C)NC(=O)[C@H]([C@@H](C)O)NC(=O)[C@H](Cc2c[nH]c3ccccc23)NC(=O)[C@H](CO)NC(=O)[C@@H](Cc2ccc(O)cc2)NC(=O)CSC[C@@H](C(N)=O)NC(=O)CNC(=O)[C@H](CCCNC(=N)N)NC1=O [CP-06-W5A] (HELM PEPTIDE1{[O=C(C[*:3])[*:2]].[dY].S.W.T.A.G.N.R.S.S.V.R.G.C.[am]}$PEPTIDE1,PEPTIDE1,1:R3-15:R3$$$V2.0) | 207 |  |
| CC(C)[C@@H]1NC(=O)[C@H](CO)NC(=O)[C@H](CO)NC(=O)[C@H](CCCNC(=N)N)NC(=O)[C@H](CC(N)=O)NC(=O)CNC(=O)[C@H](Cc2c[nH]c3ccccc23)NC(=O)[C@H]([C@@H](C)O)NC(=O)[C@H](Cc2c[nH]c3ccccc23)NC(=O)[C@H](CO)NC(=O)[C@@H](Cc2ccc(O)cc2)NC(=O)CSC[C@@H](C(N)=O)NC(=O)CNC(=O)[C@H](C)NC1=O [CP-06-R12A] (HELM PEPTIDE1{[O=C(C[*:3])[*:2]].[dY].S.W.T.W.G.N.R.S.S.V.A.G.C.[am]}$PEPTIDE1,PEPTIDE1,1:R3-15:R3$$$V2.0) | 97 |  |
| CC(C)[C@@H]1NC(=O)[C@H](CO)NC(=O)[C@H](CO)NC(=O)[C@H](CCCNC(=N)N)NC(=O)[C@H](CC(N)=O)NC(=O)CNC(=O)[C@H](Cc2c[nH]c3ccccc23)NC(=O)[C@H]([C@@H](C)O)NC(=O)[C@H](C)NC(=O)[C@H](CO)NC(=O)[C@@H](Cc2ccc(O)cc2)NC(=O)CSC[C@@H](C(N)=O)NC(=O)CNC(=O)[C@H](CCCNC(=N)N)NC1=O [CP-06-W3A] (HELM PEPTIDE1{[O=C(C[*:3])[*:2]].[dY].S.A.T.W.G.N.R.S.S.V.R.G.C.[am]}$PEPTIDE1,PEPTIDE1,1:R3-15:R3$$$V2.0) | 1200 |  |
| CC(C)[C@@H]1NC(=O)[C@H](CO)NC(=O)[C@H](CO)NC(=O)[C@H](CCCNC(=N)N)NC(=O)[C@H](CC(N)=O)NC(=O)CNC(=O)[C@H](Cc2c[nH]c3ccccc23)NC(=O)[C@H](C)NC(=O)[C@H](Cc2c[nH]c3ccccc23)NC(=O)[C@H](CO)NC(=O)[C@@H](Cc2ccc(O)cc2)NC(=O)CSC[C@@H](C(N)=O)NC(=O)CNC(=O)[C@H](CCCNC(=N)N)NC1=O [CP-06-T4A] (HELM PEPTIDE1{[O=C(C[*:3])[*:2]].[dY].S.W.A.W.G.N.R.S.S.V.R.G.C.[am]}$PEPTIDE1,PEPTIDE1,1:R3-15:R3$$$V2.0) | 18 |  |
| C[C@@H]1NC(=O)[C@H](CO)NC(=O)[C@@H](Cc2ccc(O)cc2)NC(=O)CSC[C@@H](C(N)=O)NC(=O)[C@H](Cc2ccc(O)cc2)NC(=O)[C@H](Cc2ccc(O)cc2)NC(=O)[C@H](CCC(N)=O)NC(=O)[C@H]([C@@H](C)O)NC(=O)[C@H](CCC(N)=O)NC(=O)[C@H](CCCNC(=N)N)NC(=O)[C@H](CC(N)=O)NC(=O)CNC(=O)[C@H](Cc2c[nH]c3ccccc23)NC1=O [CP-13] (HELM PEPTIDE1{[O=C(C[*:3])[*:2]].[dY].S.A.W.G.N.R.Q.T.Q.Y.Y.C.[am]}$PEPTIDE1,PEPTIDE1,1:R3-14:R3$$$V2.0) |  | Kd [2]: 10.8 ± 0.7 nM |
| CC(C)[C@@H]1NC(=O)[C@H](CO)NC(=O)[C@H](CO)NC(=O)[C@H](CCCNC(=N)N)NC(=O)[C@H](CC(N)=O)NC(=O)CNC(=O)[C@H](Cc2c[nH]c3ccccc23)NC(=O)[C@H]([C@@H](C)O)NC(=O)[C@H](Cc2c[nH]c3ccccc23)NC(=O)[C@H](CO)NC(=O)[C@H](C)NC(=O)CSC[C@@H](C(N)=O)NC(=O)CNC(=O)[C@H](CCCNC(=N)N)NC1=O [CP-06-d-Y1A] (HELM PEPTIDE1{[O=C(C[*:3])[*:2]].A.S.W.T.W.G.N.R.S.S.V.R.G.C.[am]}$PEPTIDE1,PEPTIDE1,1:R3-15:R3$$$V2.0) | 668 | Kd (Ala scan of CP-06, SPR, n = 1, read-out: PKD (converted)): 676 nM; fold decrease in KD (fold loss in binding affinity) (Ala scan vs CP-06, SPR, n = 1, Figure 3b and text): ~60 fold; Fold Change (fold decrease in KD vs CP-06, Ala scan): 61 |
| CC(C)[C@@H]1NC(=O)[C@H](CO)NC(=O)[C@H](CO)NC(=O)[C@H](C)NC(=O)[C@H](CC(N)=O)NC(=O)CNC(=O)[C@H](Cc2c[nH]c3ccccc23)NC(=O)[C@H]([C@@H](C)O)NC(=O)[C@H](Cc2c[nH]c3ccccc23)NC(=O)[C@H](CO)NC(=O)[C@@H](Cc2ccc(O)cc2)NC(=O)CSC[C@@H](C(N)=O)NC(=O)CNC(=O)[C@H](CCCNC(=N)N)NC1=O [CP-06-R8A] (HELM PEPTIDE1{[O=C(C[*:3])[*:2]].[dY].S.W.T.W.G.N.A.S.S.V.R.G.C.[am]}$PEPTIDE1,PEPTIDE1,1:R3-15:R3$$$V2.0) | 18 |  |
| CC(C)[C@@H]1NC(=O)[C@H](Cc2c[nH]cn2)NC(=O)[C@@H](Cc2ccc(O)cc2)NC(=O)CSC[C@@H](C(N)=O)NC(=O)CNC(=O)[C@H](CCCNC(=N)N)NC(=O)[C@H]([C@@H](C)O)NC(=O)[C@H](Cc2ccccc2)NC(=O)[C@H](CO)NC(=O)[C@H](CCCNC(=N)N)NC(=O)[C@H](CC(N)=O)NC(=O)CNC(=O)[C@H](Cc2ccccc2)NC1=O [CP-04] (HELM PEPTIDE1{[O=C(C[*:3])[*:2]].[dY].H.V.F.G.N.R.S.F.T.R.G.C.[am]}$PEPTIDE1,PEPTIDE1,1:R3-14:R3$$$V2.0) |  | Kd [2]: 11.9 ± 0.3 nM |
